From patent US10219516B2, “Molecules having pesticidal utility, and intermediates, compositions, and processes, related thereto” (priority 2015, dated 2019)
Like-named read-outs stand apart in the source and are kept apart here.

Tests used:
[1] = test system: Beet Armyworm (Spodoptera exigua, LAPHEG); assay: Bioassay on Beet Armyworm (BAW), 128-well diet tray assay; assay type: in vivo
Protocol: (§1) Certain molecules disclosed in this document were tested against BAW and CL using procedures described in the following examples. In the reporting of the results, the “BAW & CL Rating Table” was used (See Table Section).
Bioassays on BAW were conducted using a 128-well diet tray assay. One to five second instar BAW larvae were placed in each well (3 mL) of the diet tray that had been previously filled with approximately 1.5 mL of artificial diet to which 50 μg/cm^2 of the test molecule (dissolved in 50 μL of 90:10 acetone-water mixture) had been applied (to each of eight wells) and then allowed to dry. Trays were covered with a clear self-adhesive cover, vented to allow gas exchange, and held at 25° C., 14:10 light-dark for five to seven days. Percent mortality was recorded for the larvae in each well; activity in the eight wells was then averaged. The results are indicated in the table entitled “Table ABC: Biological Results” (See Table Section).

[2] = test system: Cabbage Looper (Trichoplusia ni, TRIPNI); assay: Bioassay on Cabbage Looper (CL), 128-well diet tray assay; assay type: in vivo; conditions: Trichoplusia ni
Protocol: as §1
Bioassays on CL were conducted using a 128-well diet tray assay. one to five second instar CL larvae were placed in each well (3 mL) of the diet tray that had been previously filled with 1 mL of artificial diet to which 50 μg/cm^2 of the test molecule (dissolved in 50 μL of 90:10 acetone-water mixture) had been applied (to each of eight wells) and then allowed to dry. Trays were covered with a clear self-adhesive cover, vented to allow gas exchange, and held at 25° C., 14:10 light-dark for five to seven days. Percent mortality was recorded for the larvae in each well; activity in the eight wells was then averaged. The results are indicated in the table entitled “Table ABC: Biological Results” (See Table Section).

[3] = Beet Armyworm, 128-well diet tray assay, read-out: BAW rating
[4] = Cabbage Looper, 128-well diet tray assay, read-out: CL rating
[5] = Species BAW (Beet Armyworm), read-out: BAW (Biological Results, rating)
[6] = Species CL (Cabbage Looper), read-out: CL (Biological Results, rating)

Compound	pest or weed control at 50 µg/cm2 [1, 3] [%]	pest or weed control at 50 µg/cm2 [2, 4] [%]	pest or weed control at 50 µg/cm2 [1, 5] [%]	pest or weed control at 50 µg/cm2 [2, 6] [%]
COCC(=O)Nc1ccc(NC(=O)c2cc(NC(=O)[C@H]3[C@H](c4cc(Cl)cc(Cl)c4)C3(Cl)Cl)ccc2Cl)cc1 (relative stereo) [PF27, trans-2-Chloro-5-(2,2-dichloro-3-(3,5-dichlorophenyl)cyclopropane-1-carboxamido)-N-(4-(2-methoxyacetamido)phenyl)benzamide]	50 to 100	50 to 100	–	–
Nc1c(F)ccc(NC(=O)c2cc(NC(=O)C3C(c4cc(F)cc(C(F)(F)F)c4)C3(Cl)Cl)ccc2Cl)c1F (stereo not drawn) [F623, N-(3-Amino-2,4-difluorophenyl)-2-chloro-5-(2,2-dichloro-3-trans-(3-fluoro-5-(trifluoromethyl)phenyl)cyclopropane-1-carboxamido)benzamide]	50 to 100	50 to 100	–	–
O=C(Nc1ccc(F)cc1)c1cc(NC(=O)[C@H]2[C@H](c3cc(F)cc(Cl)c3)C2(Cl)Cl)ccc1Cl (relative stereo) [PF1, trans-2-Chloro-5-(2,2-dichloro-3-(3-chloro-5-fluorophenyl)cyclopropane-1-carboxamido)-N-(4-fluorophenyl)benzamide]	50 to 100	50 to 100	–	–
CS(=O)(=O)c1ccc(NC(=O)[C@H]2[C@H](c3cc(Cl)cc(Cl)c3)C2(Cl)Cl)cc1C(=O)Nc1ccc(F)cc1 (relative stereo) [F157, trans-5-(2,2-dichloro-3-(3,5-dichlorophenyl)cyclopropane-1-carboxamido)-N-(4-fluorophenyl)-2-(methylsulfonyl)benzamide]	–	–	50 to 100	50 to 100
N#Cc1ccc(NC(=O)c2cc(NC(=O)[C@H]3[C@H](c4cc(Cl)cc(Cl)c4)C3(Cl)Cl)ccc2Cl)nc1N (relative stereo) [F292, N-(6-Amino-5-cyanopyridin-2-yl)-2-chloro-5-(trans-2,2-dichloro-3-(3,5-dichlorophenyl)cyclopropane-1-carboxamido)benzamide]	–	–	50 to 100	50 to 100
O=C(Nc1nc(C(F)(F)F)cs1)c1cc(NC(=O)[C@H]2[C@H](c3cc(Cl)cc(Cl)c3)C2(Cl)Cl)ccc1Cl (relative stereo) [PF134, trans-2-Chloro-5-(2,2-dichloro-3-(3,5-dichlorophenyl)cyclopropane-1-carboxamido)-N-(4-(trifluoromethyl)thiazol-2-yl)benzamide]	50 to 100	50 to 100	–	–
O=C(Nc1ccc(NC(=O)c2cc(NC(=O)[C@H]3[C@H](c4cc(Cl)cc(Cl)c4)C3(Cl)Cl)ccc2Cl)cc1)c1ccccc1 (relative stereo) [PF104, trans-N-(4-Benzamidophenyl)-2-chloro-5-(2,2-dichloro-3-(3,5-dichlorophenyl)cyclopropane-1-carboxamido)benzamide]	50 to 100	50 to 100	–	–
Nc1c(F)ccc(NC(=O)c2cc(NC(=O)C3C(c4c(F)c(F)c(F)c(F)c4F)C3(Cl)Cl)ccc2Cl)c1F (stereo not drawn) [F626, N-(3-Amino-2,4-difluorophenyl)-2-chloro-5-(2,2-dichloro-3-trans-(perfluorophenyl)cyclopropane-1-carboxamido)benzamide]	50 to 100	50 to 100	–	–
CN(C(=O)c1cc(NC(=O)[C@H]2[C@H](c3cc(Cl)cc(Cl)c3)C2(Br)Br)ccc1Cl)c1ccc(F)cc1 (relative stereo) [PF7, trans-2-Chloro-5-(2,2-dibromo-3-(3,5-dichlorophenyl)cyclopropane-1-carboxamido)-N-(4-fluorophenyl)-N-methylbenzamide]	50 to 100	50 to 100	–	–
O=C(Nc1ccc(F)c(C(F)(F)F)c1)c1cc(NC(=O)[C@H]2[C@H](c3cc(Cl)cc(Cl)c3)C2(Cl)Cl)ccc1Cl (relative stereo) [PF70, trans-2-Chloro-5-(2,2-dichloro-3-(3,5-dichlorophenyl)cyclopropane-1-carboxamido)-N-(4-fluoro-3-(trifluoromethyl)phenyl)benzamide]	50 to 100	50 to 100	–	–
O=C(Nc1cc[n+]([O-])cc1)c1cc(NC(=O)[C@H]2[C@H](c3cc(Cl)cc(Cl)c3)C2(Cl)Cl)ccc1Cl (relative stereo) [F140, trans-4-(2-Chloro-5-(2,2-dichloro-3-(3,5-dichlorophenyl)cyclopropane-1-carboxamido)benzamido)pyridine 1-oxide]	–	–	50 to 100	50 to 100
O=C(Nc1ccc2c(ccn2Cc2ccccc2)c1)c1cc(NC(=O)[C@H]2[C@H](c3cc(Cl)cc(Cl)c3)C2(Cl)Cl)ccc1Cl (relative stereo) [F458, N-(1-Benzyl-1H-indol-5-yl)-2-chloro-5-(trans)-(2,2-dichloro-3-(3,5-dichlorophenyl)cyclopropane-1-carboxamido)benzamide]	50 to 100	50 to 100	–	–
Cc1cc(N(C)C(=O)OC(C)(C)C)ccc1NC(=O)c1cc(NC(=O)[C@H]2[C@H](c3cc(Cl)cc(Cl)c3)C2(Cl)Cl)ccc1Cl (relative stereo) [F198, trans-tert-Butyl-(4-(2-chloro-5-(2,2-dichloro-3-(3,5-dichlorophenyl)cyclopropane-1-carboxamido)benzamido)-3-methylphenyl)(methyl)carbamate]	–	–	50 to 100	50 to 100
CC(C)(C)OC(=O)N(C(=O)OC(C)(C)C)c1c(F)ccc(NC(=O)c2cc(NC(=O)C3C(c4ccc(Cl)c(Br)c4)C3(Cl)Cl)ccc2Cl)c1F (stereo not drawn) [F513, tert-Butyl-N-((tert-butoxy)carbonyl)-N-(3-(5-(3-(3-bromo-4-chlorophenyl)-2,2-dichlorocyclopropane-1-carboxamido)-2-chlorobenzamido)-2,6-difluorophenyl)carbamate]	50 to 100	50 to 100	–	–
Cc1cc(NC(=O)OC(C)(C)C)ccc1NC(=O)c1cc(NC(=O)[C@H]2[C@H](c3cc(Cl)cc(Br)c3)C2(Cl)Cl)ccc1Cl (relative stereo) [F335, tert-Butyl (4-(5-(trans-3-(3-bromo-5-chlorophenyl)-2,2-dichlorocyclopropane-1-carboxamido)-2-chlorobenzamido)-3-methylphenyl)carbamate]	–	–	50 to 100	50 to 100
CNc1ccc(N(C)C(=O)c2cc(NC(=O)[C@H]3[C@H](c4cc(Cl)cc(Cl)c4)C3(Cl)Cl)ccc2Cl)c(C)c1 (relative stereo) [F225, trans-2-Chloro-5-(2,2-dichloro-3-(3,5-dichlorophenyl)cyclopropane-1-carboxamido)-N-methyl-N-(2-methyl-4-(methylamino)phenyl)benzamide]	–	–	50 to 100	50 to 100
Nc1c(F)ccc(NC(=O)c2cc(NC(=O)C3C(c4cc(F)c(F)c(F)c4)C3(Cl)Cl)ccc2Cl)c1F (stereo not drawn) [F627, N-(3-Amino-2,4-difluorophenyl)-2-chloro-5-(2,2-dichloro-3-trans-(3,4,5-trifluorophenyl)cyclopropane-1-carboxamido)benzamide]	50 to 100	50 to 100	–	–
N#Cc1cc(F)ccc1NC(=O)c1cc(NC(=O)[C@H]2[C@H](c3cc(Cl)c(Cl)c(Cl)c3)C2(Cl)Cl)ccc1Cl (relative stereo) [F191, trans-2-Chloro-N-(2-cyano-4-fluorophenyl)-5-(2,2-dichloro-3-(3,4,5-trichlorophenyl)cyclopropane-1-carboxamido)benzamide]	–	–	50 to 100	50 to 100
O=C(Nc1ncncc1F)c1cc(NC(=O)[C@H]2[C@H](c3cc(Cl)cc(Cl)c3)C2(Cl)Cl)ccc1Cl (relative stereo) [F318, trans-2-Chloro-5-(2,2-dichloro-3-(3,5-dichlorophenyl)cyclopropane-1-carboxamido)-N-(5-fluoropyrimidin-4-yl)benzamide]	–	–	50 to 100	50 to 100
CNc1cc(NC(=O)c2cc(NC(=O)[C@H]3[C@H](c4cc(Cl)cc(Cl)c4)C3(Cl)Cl)ccc2Cl)ccc1C (relative stereo) [F207, trans-2-Chloro-5-(2,2-dichloro-3-(3,5-dichlorophenyl)cyclopropane-1-carboxamido)-N-(4-methyl-3-(methylamino)phenyl)benzamide]	–	–	50 to 100	50 to 100
CC(C)(C)OC(=O)N(C(=O)OC(C)(C)C)c1c(F)ccc(NC(=O)c2cc(NC(=O)[C@H]3[C@H](c4ccc(Cl)c(Cl)c4)C3(Cl)Cl)ccc2Cl)c1F [F500, tert-Butyl-N-((tert-butoxy)carbonyl)-N-(3-(2-chloro-5-((1R,3R)-2,2-dichloro-3-(3,4-dichlorophenyl)cyclopropane-1-carboxamido)benzamido)-2,6-difluorophenyl)carbamate]	50 to 100	0 to 50	–	–
